In patent US20120231140A1, “Organic Compounds” (GIVAUDAN SA, priority 2009, published 2012):

Test: Sensory analysis of the umami enhancing thresholds in Model Broth by a panel of trained experts
Type: in vivo
Settings: Model Broth (MSG, maltodextrin, sodium chloride, yeast extract in water); half-tongue test vs blank broth; geometric mean over panelists; read-out: Umami enhancement threshold concentration in "Model Broth" as calculated for the panel
Description: Sensory analysis of the umami enhancing thresholds of the compounds isolated from the ACN fraction of heated avocado pulp as described in example 1.
Water for sensory evaluation was commercially available table water (“Evian®”, Danone, Wiesbaden, Germany).
“Model Broth” contained monosodium L-glutamate monohydrate (MSG) (1.9 g), maltodextrin (6.375 g), sodium chloride (2.9 g) and yeast extract (2.1 g), in 1000 mL of water.
25 mg of each of the compounds listed hereinabove were separately dissolved in 0.2 mL ethanol, then 20.0 mL of model broth was added to each sample. Each sample was then diluted with model broth in 1:1(v/v) steps, until sets of nine solutions with dilution factors of 1, 2, 4, 8, 16, 32, 64, 128, and […] were obtained for each compound.
The samples were evaluated by a panel of trained experts.
The following sensorial evaluation procedure was followed for each set of samples containing a different compound of formula (I).
In a way that avoided any mixing, 1 mL of one of the sample solutions was applied to the left part of each panelists tongue, and 1 mL of Model Broth as a blank value/neutral reference was applied to the right part of the tongue. The panelists were asked to compare the taste on both halves of their tongues. After 5 to 30 seconds the panelists were then asked to rub their tongues against the roof of their mouths. Panelists were then asked if they could distinguish the sample from the blank (Model Broth).
After each sample, the oral cavity was rinsed with water and a break of 5 to 10 minutes was observed until the stimulus completely disappeared.
Multiple sample solutions were tested in this way, one after the other in ascending order of concentration, to determine the weakest concentration at which the compounds of formula (I) enhanced the umami taste of the model broth.
The calculation of the umami enhancement threshold was then performed as described in the literature (ASU: L 00.90-9, 1999), via the geometric mean.
By “umami enhancement threshold” is meant, the mean concentration at which a compound enhances the umami taste of a model broth.
For each panelist, the following formula was used to determine the mean umami enhancement threshold:
E=√{square root over (ce×ce−1)}
wherein ce is the concentration (in ppm) of the weakest concentration identified as having an umami enhancing effect, Ce−1 is the concentration (in ppm) of the anteceding sample solution and E is the mean umami enhancement threshold.
To calculate the mean umami enhancement threshold for the panel, the following formula was used: […]
Wherein n is the number of panelists, Ei is the product of the umami enhancement thresholds calculated for each panelist as specified above.
The panel calculated mean umami enhancement threshold for each compound is indicated in table1 below.

SMILES | minimal effective concentration [µg/mL]
CCCCCCCCCCCCCC(=O)CC(O)COC(C)=O (centres unmarked) [1-acetoxy-2-hydroxy-4-keto-n-heptadecane] | 5.6
CCCCCC=CCC=CCCCCCC=CC(=O)CC(O)COC(C)=O (centres unmarked) [1-acetoxy-2-hydroxy-4-oxo-n-heneicosa-5,12,15-trien] | 0.7
CCCCCC=CCC=CCCCCCCCC(=O)CC(O)COC(C)=O (centres unmarked) [1-acetoxy-2-hydroxy-4-oxo-n-heneicosa-12,15-dien] | 3.2
CCCCCC=CCCCCCCCC(=O)CC(O)COC(C)=O (centres unmarked) [1-acetoxy-2-hydroxy-4-keto-n-octadeca-12-en] | 1.8
CCCCCC=CCC=CCCCCCCCC(O)CC(O)COC(C)=O (centres unmarked) [1-acetoxy-2,4-dihydroxy-n-heneicosa-12,15-dien] | 0.7
C=CCCCCCCCCCCCC(O)CC(O)COC(C)=O (centres unmarked) [1-acetoxy-2,4-dihydroxy-n-heptadeca-16-en] | 2.8
C=CCCCCCCCCCCCC(=O)CC(O)COC(C)=O (centres unmarked) [1-acetoxy-2-hydroxy-4-keto-n-heptadeca-16-en] | 3.5
C#CCCCCCCCCCCCC(O)CC(O)COC(C)=O (centres unmarked) [1-acetoxy-2,4-dihydroxy-n-heptadeca-16-yne] | 1.5
